# Measured values published in US20130267680A1, “TOTAL CHEMICAL SYNTHESIS OF UBIQUITIN, UBIQUITIN MUTANTS AND DERIVATIVES THEREOF” (Stichting Het Nederlands kankerinstituut, priority 2010, published 2013).
# Assays:
# UCH-L3 = molecular target: T1, UCH-L3 (Homo sapiens, UniProt P15374); assay: Ub-AMC/Ub-Rh110-Gly DUB assay with UCH-L3; type: biochemical; conditions: 1 nM enzyme, substrate 0.06-15 μM, 25° C., 30 min
# T1 construct: made in house; host or cells: Escherichia coli
# T1 sequence (P15374 1-230): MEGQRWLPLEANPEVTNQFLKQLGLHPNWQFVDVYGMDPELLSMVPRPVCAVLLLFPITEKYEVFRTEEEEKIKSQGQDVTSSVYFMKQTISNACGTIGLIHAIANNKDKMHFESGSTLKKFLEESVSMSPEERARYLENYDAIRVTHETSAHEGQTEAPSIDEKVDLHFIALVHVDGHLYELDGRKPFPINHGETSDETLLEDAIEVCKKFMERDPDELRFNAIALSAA
# Experimental: (§1) FIG. 5: Hydrolysis of fluorogenic Ub derivatives by the deubiquitinating enzymes HAUSP/USP7 and UCH-L3. All assays contained 1 nM of enzyme, substrate concentration was varied.
# Assay 2. Synthetic Ub-AMC was treated with UCH-L3.
# (§2) Assay 3: Ub-Rh110-Gly was treated with HAUSP/USP7 and UCH-L3.
# UCH-L3 in pRSET vector was obtained from Dr. Keith Wilkinson. UCH-L3 was expressed in Escherichia coli and purified as described in: C. N. Larsen, J. S. Price, K. D. Wilkinson, K. D. Biochemistry 1996, 35, 6735-6744.
# (§3) assay buffer: 50 mM HEPES pH 7.5 • 100 mM NaCl • 1 mM EDTA • 0.05% Tween20 • 10 mM DTT • Reaction mixtures were incubated for 30 min at 25° C., measured every 5 minutes • 30 μL reactions • Proteins used: Ub-AMC (Commercial) • Ub-AMC (Synthetic) • Ub-Rh110-Gly (Synthetic) • USP7 full length • UCH-L3 All assays contained 1 nM DUB and the following concentrations of Ub:
# DUB activity on commercial (Sigma) and synthetic ubiquitin with a C-terminal fluorescent group, 7-amino-4-methylcoumarin (Ub-AMC) were performed at 25° C. in buffer containing 50 mM Hepes pH 7.5, 100 mM NaCl, 1 mM EDTA, 0.05% (w/v) Tween20, 10 mM DTT. The concentrations Ubiquitin-AMC and DUB are specified in the figures. […] Kinetic data was collected in intervals of 5 min using a Fluostar Optima fluorescence plate reader (BMG Labtechnologies) at excitation and emission wavelengths of 355 nm and 460 nm, respectively for Ub-AMC. […]
# HAUSP/USP7 [1] = assay: Ub-AMC/Ub-Rh110-Gly DUB assay with HAUSP/USP7; type: biochemical; conditions: 1 nM enzyme
# Experimental: as §1
# Target sequence in this assay (Q93009 whole entry): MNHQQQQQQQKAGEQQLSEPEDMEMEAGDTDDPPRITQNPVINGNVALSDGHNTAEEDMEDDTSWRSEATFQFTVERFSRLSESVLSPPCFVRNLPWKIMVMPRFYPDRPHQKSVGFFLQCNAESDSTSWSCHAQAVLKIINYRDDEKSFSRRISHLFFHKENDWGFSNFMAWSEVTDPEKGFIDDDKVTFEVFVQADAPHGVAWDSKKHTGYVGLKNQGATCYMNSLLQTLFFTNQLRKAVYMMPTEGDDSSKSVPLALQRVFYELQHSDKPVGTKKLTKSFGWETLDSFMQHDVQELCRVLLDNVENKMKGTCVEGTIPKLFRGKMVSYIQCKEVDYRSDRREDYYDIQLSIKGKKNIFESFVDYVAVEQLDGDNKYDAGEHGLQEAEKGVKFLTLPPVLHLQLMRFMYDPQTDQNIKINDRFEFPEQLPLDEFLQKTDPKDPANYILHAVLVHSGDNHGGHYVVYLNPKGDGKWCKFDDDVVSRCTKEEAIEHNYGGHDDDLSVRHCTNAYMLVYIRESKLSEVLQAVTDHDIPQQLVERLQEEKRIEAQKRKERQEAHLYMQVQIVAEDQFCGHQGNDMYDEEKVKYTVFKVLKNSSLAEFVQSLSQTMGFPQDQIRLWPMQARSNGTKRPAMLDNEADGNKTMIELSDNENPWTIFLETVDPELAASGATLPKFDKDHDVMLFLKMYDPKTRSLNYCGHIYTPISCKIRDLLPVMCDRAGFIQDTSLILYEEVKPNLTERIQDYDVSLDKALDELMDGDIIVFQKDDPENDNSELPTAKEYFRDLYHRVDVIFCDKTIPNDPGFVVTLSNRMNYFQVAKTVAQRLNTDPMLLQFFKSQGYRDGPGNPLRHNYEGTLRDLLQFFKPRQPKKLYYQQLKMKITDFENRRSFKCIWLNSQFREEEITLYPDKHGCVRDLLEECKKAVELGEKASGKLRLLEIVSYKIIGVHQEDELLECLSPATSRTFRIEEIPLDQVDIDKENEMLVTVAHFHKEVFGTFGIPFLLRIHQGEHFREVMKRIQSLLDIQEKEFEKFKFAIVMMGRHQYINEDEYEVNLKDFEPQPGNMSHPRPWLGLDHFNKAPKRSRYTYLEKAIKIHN
# Assay 1: Commercial and synthetic Ub-AMC, prepared according to the present method are treated side by side with HAUSP/USP7 and compared.
# as §2
# Usp7(206-1102) was expressed in E. coli from a synthetic construct and purified as described: (a) Shanmugham et al. J. Am. Chem. Soc. 2010, 132, 8834-8835; (b) Fernandez-Montalvan et al. Febs J. 2007, 274, […].
# as §3
# DUB activity on commercial (Sigma) and synthetic ubiquitin with a C-terminal fluorescent group, 7-amino-4-methylcoumarin (Ub-AMC) were performed at 25° C. in buffer containing 50 mM Hepes pH 7.5, 100 mM NaCl, 1 mM EDTA, 0.05% (w/v) Tween20, 10 mM DTT. The concentrations Ubiquitin-AMC and DUB are specified in the figures. Assays were performed in “Non binding surface flat bottom low flange” black 384-well plates (Corning) in 30 μl reactions. Kinetic data was collected in intervals of 5 min using a Fluostar Optima fluorescence plate reader (BMG Labtechnologies) at excitation and emission wavelengths of 355 nm and 460 nm, respectively for Ub-AMC. Experimental data was processed using Prism 4.03 (GraphPad Software, Inc.).
# HAUSP/USP7 [2] = assay: Binding of HAUSP/USP7 to ubiquitin-VME; conditions: Ub-VME 2 μM, USP7 1 μM, 60 min at 30° C.
# Experimental: Both Ub derivatives are routinely used to measure activity of deubiquitinating enzymes (DUBs). […] The structural integrity of synthetic UbAMC and UBRh110Gly, both prepared in accordance with the method of the present invention, was tested using the following assays.
# Binding of HAUSP/USP7 to ubiquitin-VME Assay buffer: 20 mM HEPES pH7.5 • 150 mM NaCl • 2 μM ZnCl2 • 10 mM MgCl2 • 2 mM DTT
# Reaction mixtures were incubated for 60 min at 30° C.
# Load 10 μL on gel (complete sample)
# Target sequence in this assay (Q93009 206-1102): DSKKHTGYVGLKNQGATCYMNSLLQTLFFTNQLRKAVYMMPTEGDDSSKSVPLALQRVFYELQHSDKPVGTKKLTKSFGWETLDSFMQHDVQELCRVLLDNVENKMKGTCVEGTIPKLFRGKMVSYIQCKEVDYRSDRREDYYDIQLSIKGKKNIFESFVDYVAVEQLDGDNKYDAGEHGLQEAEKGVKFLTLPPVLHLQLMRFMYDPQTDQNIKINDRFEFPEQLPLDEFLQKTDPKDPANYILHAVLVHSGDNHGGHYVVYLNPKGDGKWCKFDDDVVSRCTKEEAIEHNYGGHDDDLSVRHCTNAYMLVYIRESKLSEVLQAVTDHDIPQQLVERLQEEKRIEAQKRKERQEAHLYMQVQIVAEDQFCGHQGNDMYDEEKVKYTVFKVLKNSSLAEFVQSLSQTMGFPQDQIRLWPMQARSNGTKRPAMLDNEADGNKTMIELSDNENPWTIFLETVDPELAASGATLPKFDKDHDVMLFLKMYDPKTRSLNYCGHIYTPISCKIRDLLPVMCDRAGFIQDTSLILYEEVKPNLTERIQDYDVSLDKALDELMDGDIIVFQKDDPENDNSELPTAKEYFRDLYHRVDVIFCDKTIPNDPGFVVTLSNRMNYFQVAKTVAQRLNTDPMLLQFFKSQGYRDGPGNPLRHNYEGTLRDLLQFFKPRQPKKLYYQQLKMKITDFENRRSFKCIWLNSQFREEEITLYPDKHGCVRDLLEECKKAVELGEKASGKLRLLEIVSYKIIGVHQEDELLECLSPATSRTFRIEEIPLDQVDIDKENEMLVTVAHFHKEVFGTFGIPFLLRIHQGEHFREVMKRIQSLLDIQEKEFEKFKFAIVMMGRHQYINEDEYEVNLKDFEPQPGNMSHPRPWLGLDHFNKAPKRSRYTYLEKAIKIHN
Substance,hydrolysis / turnover by UCH-L3 (recognition as substrate) (UCH-L3),hydrolysis / turnover by UCH-L3 (recognition as substrate) (UCH-L3; listed as synthetic Ub-AMC),"hydrolysis / turnover by HAUSP/USP7 (recognition as substrate) (HAUSP/USP7 [1]; substrate 0.06-15 μM, 25° C., 30 min)","Michaelis-Menten kinetics comparison with USP7 (HAUSP/USP7 [1]; substrate concentration varied, commercial versus synthetic UbAMC (FIG. 5C))","Km values with HAUSP/USP7 (HAUSP/USP7 [1]; substrate concentration varied, synthetic versus commercial UbAMC)",reaction of active-site targeted probe with HAUSP/USP7 (HAUSP/USP7 [2])
"synthetic UbAMC: synthetic ubiquitin with a C-terminal fluorescent group, 7-amino-4-methylcoumarin; fluorogenic assay reagent",efficient turnover,hydrolyzed and thus recognized as a substrate,efficient turnover,identical kinetics,comparable Km values,
UbVME: active site directed probe Ub vinylmethyl ester which covalently modifies DUBs,,,,,,reacted swiftly as expected
